pIC50: −log10 of the molar value. Read-outs that look alike come from different tables or passages of the source.
Key:
human VEGFR2 kinase = human VEGFR2 kinase (Homo sapiens, UniProt P35968); assay: KDR ELISA assay; format: biochemical
KDR [1] = conditions: read-out: reported IC50 value; final ATP concentration 2 μM; cited from earlier work
KDR [2] = conditions: read-out: Reported KDR Inhibition IC50; cited from earlier work

human VEGFR2 kinase, sequence (P35968 790-1356 limits assumed): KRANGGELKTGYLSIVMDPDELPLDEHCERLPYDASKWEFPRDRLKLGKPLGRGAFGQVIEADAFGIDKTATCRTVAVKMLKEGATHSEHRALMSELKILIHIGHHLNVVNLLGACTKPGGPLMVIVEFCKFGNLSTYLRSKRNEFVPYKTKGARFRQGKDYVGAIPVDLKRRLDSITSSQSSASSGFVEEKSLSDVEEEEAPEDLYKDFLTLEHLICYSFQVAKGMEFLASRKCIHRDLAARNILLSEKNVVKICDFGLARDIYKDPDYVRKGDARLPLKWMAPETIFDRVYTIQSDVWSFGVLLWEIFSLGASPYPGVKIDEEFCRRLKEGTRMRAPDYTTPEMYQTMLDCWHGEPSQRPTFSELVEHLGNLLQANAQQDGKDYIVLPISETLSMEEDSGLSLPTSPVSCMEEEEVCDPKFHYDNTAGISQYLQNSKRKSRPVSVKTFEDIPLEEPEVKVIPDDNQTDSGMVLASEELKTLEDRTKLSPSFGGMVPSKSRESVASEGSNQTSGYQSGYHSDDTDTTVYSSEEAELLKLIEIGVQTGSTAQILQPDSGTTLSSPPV

Molecule `COc1cc2ncnc(Nc3ccc(C)c(F)c3)c2cc1OC` [Compound 14, (6,7-Dimethoxy-quinazolin-4-yl)-(3-fluoro-4-methyl-phenyl)-amine] has a pIC50 (human VEGFR2 kinase) of 5.60.

For `COc1cc2nccc(Oc3ccc(NC(=O)Nc4ccc(F)cc4F)c(F)c3)c2cc1OC` [Ki8751, reference compound], the pIC50 (human VEGFR2 kinase; read-out: KDR IC50, 20 μM ATP) is given as 6.10 and the pIC50 (KDR [1]) is given as 9.05.

In the case of `COc1cc2ncnc(Nc3ccc(Cl)cc3)c2cc1OC` [Compound 10, (4-Chloro-phenyl)-(6,7-dimethoxy-quinazolin-4-yl)-amine], the “KDR assay activity in words” value (human VEGFR2 kinase) is listed as “relatively inactive” and the pIC50 (KDR [2]) is listed as 6.10.

For `COc1ccc(-c2cnc3c(-c4ccsc4)cnn3c2)cc1` [Compound 21, 6-(4-Methoxy-phenyl)-3-thiophen-3-yl-pyrazolo[1,5-a]pyrimidine], the “KDR assay activity in words” value (human VEGFR2 kinase) was “active”.

Reference: PMC3774784 (Bioorganic & medicinal chemistry letters, 2011)
